Experimental data reported in patent US20240425857A1, “Means and Methods for Chronic Wound Healing” (VIB VZW, priority 2021, published 2024).
“Also recorded” adds a separate entry of the source.

Legend:
dendritic cells (BMDC) = experiment: Efferocytosis assay: dendritic cells incubated with apoptotic Jurkat cells (flow cytometry or Incucyte live-cell imaging); format: cell-based, mouse; conditions: apoptotic Jurkat targets; for efferocytosis (apoptotic cell uptake) by dendritic cells: 1:5 phagocyte:target ratio, cells pretreated 1 hour with the substance; for erastin-dependent increase in efferocytosis by dendritic cells: inhibitor given together with 5 μM erastin
Method: (§1) Efferocytosis assays. For induction of apoptosis, human Jurkat T cells were with stained with CypHerSE (#PA15401, GE Healthcare) or TAMRA (#C-1171, Invitrogen) or pHrodo™ Green STP Ester (#P35369, ThermoFisher), resuspended in RPMI with 5% fetal calf serum, treated with 150 mJ/cm^2 ultraviolet C irradiation (Stratalinker) and incubated for 4 h at 37° C. with 5% CO2. Dendritic cells were incubated with apoptotic targets at a 1:5 phagocyte: target ratio for the indicated times. Phagocytosis was assessed by a flow cytometry-based assay^21 or by Incucyte Live-cell imaging. As alternative targets for phagocytosis, dendritic cells were incubated with pHrodo™ Green E. coli BioParticles™ (#P35366, ThermoFisher) or Streptavidin Fluoresbrite® YG Microspheres, 2.0 μm (for simplicity, beads) at a 1:5 phagocyte: target ratio for the indicated times. When applicable, cells were pretreated for 1 hour with 5 μM erastin (#S7242, Bio-Connect B.V), 200 μM CP-91149 (#S2717, Bio-Connect B.V.), 0.2 mM 2-DG (2-Deoxy-D-glucose; #D8375-1G, Sigma), 5 μM UK5099 (#PZ0160, Sigma), 40 μM DON (6-Diazo-5-oxo-L-norleucine; #D2141-5 MG, Sigma), 10 μM 3-BP (3-Bromo-2-oxopropionic acid, #376817-M, Sigma), 10 mM Glutamate (#6106 Apr. 3, Sigma) before addition of targets.

[1] = test system: Slc7a11-deficient dendritic cells; experiment: Efferocytosis by Slc7a11-deficient (Slc7a11 KO) dendritic cells; format: cell-based, mouse; conditions: Slc7a11 KO BMDC, apoptotic Jurkat targets
Method: as §1

C57BL/6J mice = experiment: Full-thickness skin wounding (8-mm punch biopsy), wound healing in wild-type mice; format: in vivo, mouse
Source text: (§2) Skin wounding and erastin regimen. Full-thickness wounds were made as previously described^65.56 Briefly, wounds were made on shaved back skin by using 8-mm punch biopsy needles (Stiefel Instruments) under analgesia and general anesthesia in 8-week-old female C57BL/6J, B6.BKS (D)-Leprdb/J (db/db), GDF15KO, Slc7a11KO and control littermates. For wound healing experiments, assuming standard deviations of 10-15%, an experimental group of n=10 is needed to obtain statistical power of 90% (significance level 0.05) and detect a difference between means of 20%, using two-tailed paired T-testing. No animals were excluded from any experiment.
For topical applications, mice were intradermally injected with Imidazole ketone erastin (IKE at 20 mg kg^−1 in 100 μl PBS; MedChemExpress, #HY-114481) or recombinant human GDF-15 (0.7 mg kg^−1 in 100 μl PBS; R&D Systems, #9279-GD-050) or RSL3 (20 mg kg-1 in 100 μl PBS; Sellechem, #S8155) or the respective vehicle controls (DMSO or 4 mM HCl in 100 μl PBS) at the time of wounding and for two consecutive days. For the experiments indicated as ‘erastin regimen’ or vehicle regimen, 5 million apoptotic Jurkat cells were administrated once on day 0 in 50 μl PBS on top of back skin immediately after full-thickness excision biopsy. […]

db/db mice = experiment: Full-thickness skin wounding, wound healing in diabetic db/db mice; format: in vivo, mouse; conditions: no apoptotic cell co-administration
Source text: as §2
For topical applications, mice were intradermally injected with Imidazole ketone erastin (IKE at 20 mg kg^−1 in 100 μl PBS; MedChemExpress, #HY-114481) or recombinant human GDF-15 (0.7 mg kg^−1 in 100 μl PBS; R&D Systems, #9279-GD-050) or RSL3 (20 mg kg-1 in 100 μl PBS; Sellechem, #S8155) or the respective vehicle controls (DMSO or 4 mM HCl in 100 μl PBS) at the time of wounding and for two consecutive days. For the experiments indicated as ‘erastin regimen’ or vehicle regimen, 5 million apoptotic Jurkat cells were administrated once on day 0 in 50 μl PBS on top of back skin immediately after full-thickness excision biopsy. For the mice injected intradermally with supernatants from efferocytic dendritic cells, supernatants from dendritic cells cultured with apoptotic Jurkat cells for 16 h were collected, centrifuged to eliminate debris and frozen or lyophilized for preservation.

dendritic cells [2] = format: cell-based, mouse
Source text: FIG. 6D, Assessment of erastin drug cytotoxicity in dendritic cells by measuring Sytox Green fluorescence.
FIG. 9B, Assessment of cytotoxicity of drugs tested on dendritic cells by measuring Sytox Green fluorescence.

dendritic cells [3] = experiment: Determination of glycogen concentration in dendritic cells; format: cell-based, mouse; conditions: CP-91149 added to erastin-treated BMDC
Method: Determination of glycogen concentration. The glycogen concentration was measured using a Glycogen Colorimetric/Fluorometric Assay Kit (#GENT-K646-10, BioVision) according to the manufacturer's instructions.

Molecule: COc1ccc(N(C(=O)CCl)C(C(=O)NCCc2ccccc2)c2cccs2)cc1Cl (stereo not drawn) [ML-162]
- efferocytosis (apoptotic cell uptake) by dendritic cells (dendritic cells (BMDC)): did not enhance efferocytosis; also recorded: does not enhance efferocytosis by dendritic cells

Molecule: O=C(O)C(=O)CBr [3-BP, 3-Bromo-2-oxopropionic acid]
- erastin-dependent increase in efferocytosis by dendritic cells (dendritic cells (BMDC)): dampened the enhanced inhibition due to erastin treatment

Molecule: C=C1[C@@H](C)[C@H]2[C@H](Cc3ccccc3)NC(=O)[C@]23[C@H](OC(C)=O)/C=C/[C@@](C)(O)C(=O)[C@@H](C)C/C=C/[C@H]3[C@@H]1O [cytochalasin D]
- efferocytosis by Slc7a11-deficient dendritic cells [1]: abrogated

Molecule: COC(=O)c1ccc([C@@H]2c3[nH]c4ccccc4c3C[C@@H](C(=O)OC)N2C(=O)CCl)cc1 [RSL3]
- wound healing, given with apoptotic cells at day 0 (C57BL/6J mice; apoptotic Jurkat cells once on day 0, drug from day 0 to day 2): did not improve wound healing

Molecule: CC(C)Oc1ccc(C(=O)Cn2ccnc2)cc1-n1c(CN2CCN(C(=O)COc3ccc(Cl)cc3)CC2)nc2ccccc2c1=O [IKE, Imidazole ketone erastin]
- diabetic wound healing, substance alone (db/db mice): improves skin wound healing in diabetic mice
- wound healing, substance alone (C57BL/6J mice; full-thickness wound, no co-treatment): did not improve wound healing

Molecule: CCOc1ccccc1-n1c(C(C)N2CCN(C(=O)COc3ccc(Cl)cc3)CC2)nc2ccccc2c1=O (stereo not drawn) [erastin]
- dendritic cell viability (dendritic cells [2]): did not affect dendritic cell viability

Molecule: N#C/C(=C\c1cn(-c2ccccc2)c2ccccc12)C(=O)O [UK5099]
- erastin-dependent increase in efferocytosis by dendritic cells (dendritic cells (BMDC)): had no impact on efferocytosis

Molecule: CN(C)C(=O)[C@H](O)[C@H](Cc1ccccc1)NC(=O)c1cc2cc(Cl)ccc2[nH]1 [CP-91149]
- glycogen levels in erastin-treated BMDC (dendritic cells [3]): reversed the glycogen levels in erastin-treated BMDC almost to DMSO control
- erastin-dependent increase in efferocytosis by dendritic cells (dendritic cells (BMDC)): strongly abrogated the erastin-dependent increase in efferocytosis

Molecule: [N-]=[N+]=CC(=O)CC[C@H](N)C(=O)O [DON, 6-Diazo-5-oxo-L-norleucine]
- erastin-dependent increase in efferocytosis by dendritic cells (dendritic cells (BMDC)): marginally decreased the erastin-mediated augmented efferocytosis

Molecule: N[C@@H](CCC(=O)O)C(=O)O [glutamate]
- efferocytosis (apoptotic cell uptake) by dendritic cells (dendritic cells (BMDC)): boosted efferocytosis

Molecule: O=CC[C@@H](O)[C@H](O)[C@H](O)CO [2-DG, 2-Deoxy-D-glucose]
- erastin-dependent increase in efferocytosis by dendritic cells (dendritic cells (BMDC)): abrogated the enhanced efferocytosis due to Slc7a11 inhibition

B1: rGDF15: recombinant human GDF-15 (R&D Systems), member of the TGF-β superfamily (protein, UniProt Q99988 195-308, looked up)
Growth/differentiation factor …: ARARNGDHCPLGPGRCCRLHTVRASLEDLGWADWVLSPREVQVTMCIGACPSQFRAANMHAQIKTSLHRLKPDTVPAPCCVPASYNPMVLIQKTDTGVSLQTYDDLLAKDCHCI
- diabetic wound healing, substance alone (db/db mice): significantly improved wound healing in the db/db mice
- diabetic wound healing, substance alone (db/db mice; listed as recombinant GDF15): boosts healing
